# Measurements from ChEMBL document CHEMBL3244239, “Potential antitumor agents. Synthesis, reactivity, and cytoxicity of alpha-methylene carbonyl compounds” (1978).
# Test system: KB
# Assay: Cytotoxicity against human KB cells
# Assay type: functional
# Conditions: read-out: ED50 (the source's name)
row,SMILES,EC50
1,O=C1OCC/C1=C\OCCCO/C=C1\CCOC1=O,> 100 µg/mL
2,O=C1OCC/C1=C\OC(=O)c1ccccc1,100 µg/mL
3,O=C1OCC/C1=C\CCC/C=C1\CCOC1=O,> 100 µg/mL
4,C=C1C(=O)O[C@@H]2[C@@H]3[C@H](C[C@H]12)[C@@H]1C=C[C@@H]3C1,1 µg/mL
5,C=C1CC(CCCC2CC(=C)C(=O)O2)OC1=O (stereo not drawn),4 µg/mL
6,C=C1C(=O)O[C@@H]2CCCC[C@@H]12 (relative stereo),38 µg/mL
7,C=C(C)C(=O)O[C@H]1CC2=C[C@@H](C[C@@]3(C)O[C@@H]3[C@H]3OC(=O)C(=C)[C@@H]31)OC2=O [ELEPHANTOPIN],1 µg/mL
8,C=C1CCOC1=O [TULIPALINE A],16 µg/mL
